Laboratory results from ChEMBL document CHEMBL1201862, “PubChem BioAssay data set” (2004).
Calls of active or inactive are those of the source.

How the values were obtained:
[1] = target: Photoreceptor-specific nuclear receptor (Homo sapiens, UniProt Q9Y5X4); format: functional;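 note: potency for compounds that break the NR2E3 corepressor complex and count as activators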
[2] = target: Peroxisome proliferator-activated receptor gamma/Nuclear receptor corepressor 2 (Homo sapiens, UniProt P37231+Q9Y618); format: functional
Major prion protein = Major prion protein (Homo sapiens, UniProt P04156); format: functional, cell-based
[3] = target: T1, Sentrin-specific protease 1 (Homo sapiens, UniProt Q9P0U3); experiment: SENP1 catalytic domain blockers, concentration series – biochemical, kinetic FRET, dose response (AID 651697); format: functional; conditions: read-out: IC50_Mean
T1 sequence (Q9P0U3 whole entry): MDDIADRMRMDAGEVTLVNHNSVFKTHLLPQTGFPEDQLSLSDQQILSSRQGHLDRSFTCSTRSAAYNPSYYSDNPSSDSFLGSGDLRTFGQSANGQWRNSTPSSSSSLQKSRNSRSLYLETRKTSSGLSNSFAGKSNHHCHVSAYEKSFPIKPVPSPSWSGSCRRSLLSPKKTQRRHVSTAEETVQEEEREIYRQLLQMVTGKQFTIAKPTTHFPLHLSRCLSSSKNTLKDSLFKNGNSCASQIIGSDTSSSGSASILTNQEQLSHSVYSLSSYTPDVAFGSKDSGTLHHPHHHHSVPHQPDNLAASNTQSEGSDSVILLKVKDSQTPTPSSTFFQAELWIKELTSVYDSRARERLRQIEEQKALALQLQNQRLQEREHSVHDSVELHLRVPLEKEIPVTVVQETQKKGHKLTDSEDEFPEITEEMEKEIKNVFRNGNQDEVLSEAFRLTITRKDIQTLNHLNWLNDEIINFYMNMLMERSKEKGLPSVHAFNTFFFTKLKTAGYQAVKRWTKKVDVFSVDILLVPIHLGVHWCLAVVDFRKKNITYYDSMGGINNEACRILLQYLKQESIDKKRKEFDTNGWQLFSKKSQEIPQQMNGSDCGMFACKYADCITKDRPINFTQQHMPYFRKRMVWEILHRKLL

[4] = target: T1, Sentrin-specific protease 1; experiment: Dose response confirmation of small molecule inhibitors of the catalytic domain of the SUMO protease, SENP1 in a FRET assay.; format: functional; conditions: read-out: IC50_Mean
[5] = target: Fructose-bisphosphate aldolase (Mycobacterium tuberculosis, UniProt P9WQA3); experiment: Fluorescence-based biochemical high throughput dose response assay for inhibitors of the fructose-bisphosphate aldolase (FBA) of M. tuberculosis.; format: functional
Beta-galactosidase = Beta-galactosidase (Escherichia coli, UniProt Q8VNN2); experiment: Dose response counterscreen for EBI2 assay utilizing the enzyme, b-galactosidase.; format: functional
[6] = target: T2, Heat shock factor protein 1 (Mus musculus, UniProt P38532); experiment: decrease of HSF1-responsive luciferase luminescence – cell-based, NIH3T3, dose retest, confirmation (AID 2382); format: functional;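 note: NIH3T3 fibroblasts with HSF1-driven luciferase reporter stressed by proteasome inhibitor MG132; luminescence from HSF1-driven luciferase expression after 8 hours of MG132 stress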
T2 sequence (P38532 whole entry): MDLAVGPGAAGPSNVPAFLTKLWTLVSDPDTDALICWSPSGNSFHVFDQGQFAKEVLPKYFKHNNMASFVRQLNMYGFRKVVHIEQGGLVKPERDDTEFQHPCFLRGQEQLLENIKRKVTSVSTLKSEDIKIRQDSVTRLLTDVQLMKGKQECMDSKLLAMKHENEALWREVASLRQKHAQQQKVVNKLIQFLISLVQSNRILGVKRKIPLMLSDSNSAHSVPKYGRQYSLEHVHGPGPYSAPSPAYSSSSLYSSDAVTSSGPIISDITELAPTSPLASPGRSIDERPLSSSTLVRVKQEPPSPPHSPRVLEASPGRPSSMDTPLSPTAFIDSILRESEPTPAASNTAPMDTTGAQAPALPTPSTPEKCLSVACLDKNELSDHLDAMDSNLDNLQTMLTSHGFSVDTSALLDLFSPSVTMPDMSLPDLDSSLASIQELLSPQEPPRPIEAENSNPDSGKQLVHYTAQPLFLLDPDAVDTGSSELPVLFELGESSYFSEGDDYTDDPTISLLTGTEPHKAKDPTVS

Nonstructural protein 1 = Nonstructural protein 1 (Influenza A virus, UniProt Q194T2); format: functional, Influenza A virus (A/California/07/2009(H1N1))
[7] = bead-based luminescence quenchers, dual-tagged ARNT – biochemical, AlphaScreen, cherry-pick, artefact control for ARNT-TACC3 interaction inhibitor project, dose response (AID 651705); format: functional;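 note: AlphaScreen bead proximity signal that flags compounds interfering with the detection technology; potency reflects signal decrease which marks the compound as an assay artifact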
[8] = viability loss in HepG2 hepatoma cells – cell-based, ATP luminescence, cherry-pick, activator set 2, cytotoxicity control, dose response (AID 1053143); format: functional
[9] = target: T3, Oxysterols receptor LXR-beta (Homo sapiens, UniProt P55055); format: functional, cell-based;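 note: agonist activity at LXR measured by a cell-based luminescence readout across a dose range, run as a counterscreen for daf-12 agonists; HEK293 cells with Gal4-LXR fusion and GAL4-driven luciferase reporter; potency for activation of Gal4-LXR reporter so compounds are agonists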
T3 sequence (P55055 whole entry): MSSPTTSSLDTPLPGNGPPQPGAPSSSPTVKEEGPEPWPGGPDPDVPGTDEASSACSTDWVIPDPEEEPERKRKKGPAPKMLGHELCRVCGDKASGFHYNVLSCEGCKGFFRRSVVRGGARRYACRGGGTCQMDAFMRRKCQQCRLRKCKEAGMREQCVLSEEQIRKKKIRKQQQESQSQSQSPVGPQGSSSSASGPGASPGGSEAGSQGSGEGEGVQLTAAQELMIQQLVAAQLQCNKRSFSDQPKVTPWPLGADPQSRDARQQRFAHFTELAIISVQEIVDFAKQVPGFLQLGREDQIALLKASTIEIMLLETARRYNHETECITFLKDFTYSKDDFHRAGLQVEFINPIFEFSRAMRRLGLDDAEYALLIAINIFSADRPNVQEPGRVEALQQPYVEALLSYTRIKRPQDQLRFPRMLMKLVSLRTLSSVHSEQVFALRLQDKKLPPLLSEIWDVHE

[10] = target: Long-chain-fatty-acid--AMP ligase FadD28 (Mycobacterium tuberculosis, UniProt P9WQ59); experiment: Fluorescence polarization aasay to screen for inhibitors that compete for the binding of FadD28 to a bisubstrate Measured in Biochemical System Using Plate Reader - 2147-01_Inhibitor_Dose_CherryPick_Activity.; format: functional, Mycobacterium tuberculosis H37Rv
[11] = potency of ADAM10 substrate cleavage blockers – biochemical, QFRET, dose response (AID 743254);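 note: ADAM10 enzyme with the DM2 quenched FRET peptide as substrate; EDANS fluorescence gain as the protease cuts the substrate; inhibitor potency against ADAM10 proteolytic activity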

CC(C)C1Cc2ccccc2-c2[nH]c(=S)[nH]c(=O)c21 (stereo not given)
IC50 [1]: > 39.8 µM (not active)
IC50 [2]: 4.66 µM (active)
IC50 (Major prion protein): 4.87 µM (active)

CC(C)C1Cc2ccccc2-c2nc(S)nc(O)c21 (stereo not given)
IC50 (cells): > 138 µM (inactive)

Nc1nc(N)c2sc3nc(C(F)(F)F)cc(C(F)(F)F)c3c2n1
IC50 [3]: 30 µM (inactive)
IC50 [4]: 16.7 µM (active)

Cc1cccc(C)c1NC(=S)Nc1ccccc1C(=O)NCc1ccco1
IC50 [5]: 6.61 µM (active)

COc1ccc(OCC(=O)Nc2ccc(N3CCOCC3)cc2)cc1
IC50 (Beta-galactosidase): > 80 µM (inactive)

O=C(NCCCn1ccnc1)C(=O)NCC1OCCN1S(=O)(=O)c1cc(F)ccc1F (stereo not given)
EC50 [6]: 128 µM (active)
IC50 (Nonstructural protein 1): 12.7 µM (active)
AC50 [7]: 84.5 µM (active)

COc1cccc(-c2nc(-c3ccc(Br)o3)no2)c1
AC50 [8]: > 52 µM (inactive)
EC50 [9]: > 67.5 µM (inactive)

COc1ccc(/C=C2\SC(=O)N(CC(=O)Nc3cccc(C)c3)C2=O)cc1O
AC50 [10]: 1.47 µM (active)

Cc1ccc(C(=O)Nc2nnc(N=C(S)Nc3ccccc3)s2)cc1
IC50 [11]: > 69.5 µM (inactive)
